Reference: patent publication US4957920A, “Benzimidazoles, and pharmaceutical preparations containing these compounds” (priority 1987, dated 1990)
Like-named read-outs stand apart in the source and are kept apart here.

Assays:
[1] = molecular target: T1, phosphodiesterase type III obtained from ox heart (Bos taurus, UniProt A0A3Q1M1E8); assay: Inhibition of phosphodiesterase type III, Method B (Appleman and Terasaki); format: biochemical; details: read-out: percentage inhibition of FDE-III activity; for inhibition at 100 µM: 10^-4 mol/l; for inhibition at 10 µM: 10^-5 mol/l; for inhibition at 1 µM: 10^-6 mol/l
T1 sequence (A0A3Q1M1E8 1-1126): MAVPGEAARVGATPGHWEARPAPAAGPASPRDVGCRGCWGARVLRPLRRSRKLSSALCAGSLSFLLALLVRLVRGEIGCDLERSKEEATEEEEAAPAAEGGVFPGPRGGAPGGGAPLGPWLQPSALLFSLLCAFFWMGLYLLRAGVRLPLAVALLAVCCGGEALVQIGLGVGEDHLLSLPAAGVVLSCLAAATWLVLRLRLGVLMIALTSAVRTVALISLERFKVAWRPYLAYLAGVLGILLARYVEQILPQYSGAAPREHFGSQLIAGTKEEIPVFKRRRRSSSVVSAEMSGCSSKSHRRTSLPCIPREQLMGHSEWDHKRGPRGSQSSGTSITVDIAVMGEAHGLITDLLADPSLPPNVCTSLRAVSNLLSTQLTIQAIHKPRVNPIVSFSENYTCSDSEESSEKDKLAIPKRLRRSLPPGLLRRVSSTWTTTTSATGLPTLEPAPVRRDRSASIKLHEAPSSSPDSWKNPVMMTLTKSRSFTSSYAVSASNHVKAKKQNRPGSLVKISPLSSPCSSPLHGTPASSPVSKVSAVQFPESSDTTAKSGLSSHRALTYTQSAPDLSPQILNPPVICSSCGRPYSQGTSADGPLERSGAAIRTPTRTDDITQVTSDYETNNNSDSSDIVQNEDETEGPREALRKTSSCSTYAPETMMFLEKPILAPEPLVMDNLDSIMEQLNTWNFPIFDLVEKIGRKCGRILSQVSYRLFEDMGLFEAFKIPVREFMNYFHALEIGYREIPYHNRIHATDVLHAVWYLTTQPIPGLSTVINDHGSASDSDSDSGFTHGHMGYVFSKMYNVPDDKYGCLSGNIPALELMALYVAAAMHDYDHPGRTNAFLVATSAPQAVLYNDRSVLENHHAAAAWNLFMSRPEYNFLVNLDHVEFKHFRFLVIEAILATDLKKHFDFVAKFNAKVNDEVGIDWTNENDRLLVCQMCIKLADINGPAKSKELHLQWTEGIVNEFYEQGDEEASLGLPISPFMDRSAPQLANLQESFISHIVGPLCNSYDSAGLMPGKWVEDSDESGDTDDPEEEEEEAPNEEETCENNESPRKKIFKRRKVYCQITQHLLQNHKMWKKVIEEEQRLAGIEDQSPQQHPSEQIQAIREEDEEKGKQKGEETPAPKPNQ
Method: (§1) The inhibitory action of the compounds according to the invention on phosphodiesterase was tested on phosphodiesterase type III obtained from ox heart (Sigma Chemie, BRD) by the methods of W. Diederen and H. Weisenberger (Arzneim.-Forschumg 31, 177 (1981)) (Method A) and of M. A. Appleman and W. L. Terasaki (Advances in Cyclic Nucleotide Research, volume 5, Raven Press, New York (1975), page 153) (Method B).

[2] = cited from earlier work
[3] = molecular target: T1, phosphodiesterase type III obtained from ox heart; assay: Inhibition of phosphodiesterase type III, Method A (Diederen and Weisenberger); format: biochemical; details: read-out: percentage inhibition of FDE-III activity; for inhibition at 10 µM: 10^-5 mol/l; for inhibition at 1 µM: 10^-6 mol/l; for inhibition at 0.1 µM: 10^-7 mol/l
Method: as §1

[4] = system: isolated, perfused guinea pig hearts; assay: Haemodynamic effects on isolated, perfused Langendorff hearts (guinea pigs); details: Cavia porcellus
Source text: (§2) The benzimidazoles according to the invention corresponding to the general formula I combine good oral availability with interesting pharmacological properties, especially cardiovascular effects, in particular positive inotropic and blood pressure lowering effects. They show an excellent cardiotonic activity in numerous pharmacological standard models, for example in vitro in the isolated, perfused Langendorff heart or in vivo on narcotised guinea pigs, where they produce a marked increase in contractility.
1. Investigations on isolated, perfused Langendorff Hearts (guinea pigs)
The arrangement of Langendorff was modified according to P. R. Beckett (J. Pharm. Pharmacol. 22, 818 (1970)) and R. M. Abel and R. L. Reis (Circ. Res. 27, 961 (1970)) to determine the haemodynamic effects of the compounds according to the invention on isolated, perfused guinea pig hearts. The spontaneously beating guinea pig hearts were catheterised in the left ventricle and perfused with solutions of the test substances in physiological saline solution/ethanol (9:1) at concentrations of 10^-4 to 10^-8 mol/1 at a constant perfusion pressure of 60 mm Hg.

narcotised guinea pigs = assay: Haemodynamic characterisation on narcotised guinea pigs (in vivo model); design: species or system guinea pig; details: 10 μg/kg/min, infused through left jugular vein, under β-blockage (metoprolol 2 mg/kg i.m.)
Source text: as §2
2. Haemodynamic Characterisation on Narcotised Guinea Pigs (in vivo model)
The animals were narcotised with urethane (1.5 g/kg). The trachea was cannulated for volume controlled respiration. The two carotid arteries were then exposed operatively. A Tip catheter (3F) was introduced through the right carotid artery and moved forwards through the ascending aorta into the left ventricle while the pressure was continuously recorded. Successful passage through the aortic valves is recognised by the typical left ventricular pressure curve. A thermistor probe (3F, F. Edwards) is pushed forwards into the aortic arch through the left carotid for thermodilution. The thermistor probe also has a lumen for the recording of arterial blood pressure. A catheter is passed through the right jugular vein to be placed in front of the right auricle for application of the cold injectate (0.2 ml of 0.9% NaCl, 15° C.). The ECG is recorded in the first shunt. All substances are dissolved in physiological saline solution and infused through the left jugular vein (infusion volume 0 02 ml/min). The drug is applied after haemodynamic stabilisation and under β-blockage (metoprolol 2 mg/kg i.m.). All circulatory parameters are continuously registered on a direct recorder. The pulse frequency is calculated from the ECG, the contractility (dp/dt) is calculated from the […] and the volumetric cardiac output per unit time is calculated from the thermodilution curve.

[5] = system: phosphodiesterase type III; details: heart muscle cells; cited from earlier work
[6] = concentration range 10^-7 - 10^-5 mol/l, read-out: Maximum percentage changes compared with controls: Cardiac Frequency
[7] = concentration range 10^-7 - 10^-5 mol/l, read-out: Maximum percentage changes compared with controls: Contractility dp/dt
[8] = concentration range 10^-7 - 10^-5 mol/l, read-out: Maximum percentage changes compared with controls: Coronary Flow
[9] = due to the mechanisms of their action

`COc1ccc(-c2nc3ccc(C4=NNC(=O)CC4C)cc3[nH]2)cc1` (centres unmarked) [Pimobendane, reference compound] showed an inhibition at 100 µM [1] of 57%, an inhibition at 10 µM [1] of 19% and an inhibition at 1 µM [1] of 5%. The undesirable side effects ([2]; in vivo) was “undesirable side effects due to the mechanisms of their action, such as thrombocytopaenia or gastrointestinal disturbances”, the inhibition at 10 µM [3] was 30% and the inhibition at 1 µM [3] was 15%. It also gave an inhibition at 0.1 µM [3] of 7%, an Emax [4, 6] of 8% and an Emax [4, 7] of 99%. For the same compound, the Emax [4, 8] was 76%, the “Maximum percentage changes compared with initial values: Blood Pressure sys.” value (from here on “Maximum percentage changes … Blood Pressure sys.”) (narcotised guinea pigs) was -51% and the “Maximum percentage changes compared with initial values: Cardiac Frequency” value (“Maximum percentage changes … Cardiac Frequency” for short) (narcotised guinea pigs) was “+3%”. The “Maximum percentage changes compared with initial values: Contractility dp/dt” value (shortened to “Maximum percentage changes … Contractility dp/dt”) (narcotised guinea pigs) was “+10%” and the “positive inotropic effect by inhibiting phosphodiesterases, in particular type III” value [5] was “positive inotropic effect”.

In the case of `Nc1cc(-c2ccncc2)c[nH]c1=O` [amrinone], the undesirable side effects [2, 9] is listed as “undesirable side effects due to the mechanisms of their action, such as thrombocytopaenia or gastrointestinal disturbances” and the “positive inotropic effect by inhibiting phosphodiesterases, in particular type III” value [5] is listed as “positive inotropic effect”.

In the case of `Cc1[nH]c(=O)c(C#N)cc1-c1ccncc1` [milrinone], the undesirable side effects [2, 9] is listed as “undesirable side effects due to the mechanisms of their action, such as thrombocytopaenia or gastrointestinal disturbances” and the “positive inotropic effect by inhibiting phosphodiesterases, in particular type III” value [5] is listed as “positive inotropic effect”.

For `CC1CC(=O)NN=C1c1ccc2[nH]c(CCCNC(=N)NCCCc3c[nH]cn3)nc2c1` (centres unmarked) [Example 6], the Emax [4, 6] was 20%, the Emax [4, 7] was 161% and the Emax [4, 8] was 52%. The “Maximum percentage changes … Blood Pressure sys.” value (narcotised guinea pigs) was -15%, the “Maximum percentage changes … Cardiac Frequency” value (narcotised guinea pigs) was “+17%” and the “Maximum percentage changes … Contractility dp/dt” value (narcotised guinea pigs) was “+97%”.

With `CC1CC(=O)NN=C1c1ccc2[nH]c(CCCN)nc2c1` (centres unmarked) [Example 1] the inhibition at 100 µM [1] was 4%, the inhibition at 10 µM [1] was 0% and the inhibition at 1 µM [1] was 0%. The inhibition at 0.1 µM ([1]; 10^-7 mol/l) was 0%, the inhibition at 100 µM ([3]; 10^-4 mol/l) was 10% and the inhibition at 10 µM [3] was 7%. The inhibition at 1 µM [3] was 0%, the inhibition at 0.1 µM [3] was 0% and the Emax ([4]; concentration range 10^-8 - 10^-4 mol/l, read-out: Maximum percentage changes compared with controls: Cardiac Frequency) was 11%. For the same compound, the Emax ([4]; concentration range 10^-8 - 10^-4 mol/l, read-out: Maximum percentage changes compared with controls: Contractility dp/dt) was 76%, the Emax ([4]; concentration range 10^-8 - 10^-4 mol/l, read-out: Maximum percentage changes compared with controls: Coronary Flow) was 25% and the “Maximum percentage changes … Blood Pressure sys.” value (narcotised guinea pigs) was -25%. For the same compound, the “Maximum percentage changes … Cardiac Frequency” value (narcotised guinea pigs) was “+20%” and the “Maximum percentage changes … Contractility dp/dt” value (narcotised guinea pigs) was “+38%”.
